Paper PMC11127330, “Repurposing harmaline as a novel approach to reverse tmexCD1-toprJ1-mediated tigecycline resistance against klebsiella pneumoniae infections” (Microbial Cell Factories, 2024)

Biological target: T1, TMexD1 (Klebsiella pneumoniae, UniProt A0A411AKL6)
T1 construct: GST fusion from pGEX-6P-1-tmexD1 (BamHI/XhoI), E. coli BL21(DE3); plasmid-borne gene of tmexCD1-toprJ1
Experiment: circular dichroism, secondary structure change
Conditions: harmaline 128 mg/L; 190-260 nm; indirect evidence of binding

T1 sequence (A0A411AKL6 entry or part of it): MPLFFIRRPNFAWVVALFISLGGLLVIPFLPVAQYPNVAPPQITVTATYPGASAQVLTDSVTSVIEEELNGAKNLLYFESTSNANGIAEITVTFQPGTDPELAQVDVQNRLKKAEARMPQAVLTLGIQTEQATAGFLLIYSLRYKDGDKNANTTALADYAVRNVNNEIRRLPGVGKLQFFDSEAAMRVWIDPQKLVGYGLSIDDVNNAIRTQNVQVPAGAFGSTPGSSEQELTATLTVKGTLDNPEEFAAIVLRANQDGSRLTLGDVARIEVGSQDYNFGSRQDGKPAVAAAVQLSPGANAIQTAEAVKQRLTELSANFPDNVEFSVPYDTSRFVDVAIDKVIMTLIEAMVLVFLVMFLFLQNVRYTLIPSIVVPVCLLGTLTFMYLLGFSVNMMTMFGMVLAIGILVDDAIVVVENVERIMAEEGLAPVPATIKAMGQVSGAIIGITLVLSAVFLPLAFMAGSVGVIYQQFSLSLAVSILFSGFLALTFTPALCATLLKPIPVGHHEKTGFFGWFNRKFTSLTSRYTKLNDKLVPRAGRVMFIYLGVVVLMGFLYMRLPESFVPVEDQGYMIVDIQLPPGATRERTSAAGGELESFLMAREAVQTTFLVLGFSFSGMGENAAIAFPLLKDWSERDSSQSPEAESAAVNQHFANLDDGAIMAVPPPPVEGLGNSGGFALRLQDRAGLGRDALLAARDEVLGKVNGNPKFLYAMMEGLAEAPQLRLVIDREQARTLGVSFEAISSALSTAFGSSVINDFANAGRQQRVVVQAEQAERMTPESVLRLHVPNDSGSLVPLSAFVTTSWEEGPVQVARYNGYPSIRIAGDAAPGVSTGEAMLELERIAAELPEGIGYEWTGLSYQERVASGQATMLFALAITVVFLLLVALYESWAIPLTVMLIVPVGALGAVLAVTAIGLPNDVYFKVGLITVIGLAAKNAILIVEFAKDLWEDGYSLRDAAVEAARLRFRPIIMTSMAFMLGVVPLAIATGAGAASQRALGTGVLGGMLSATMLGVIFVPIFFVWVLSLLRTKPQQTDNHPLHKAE

For `COc1ccc2c3c([nH]c2c1)C(C)=NCC3` [harmaline], the “circular dichroism, secondary structure change” value was “TMexD1 (Fig. 7C and D) and TOprJ1 (Fig. 7E and F) were observed by harmaline treatment”.
